Assay type in all cases: cell-based
The test system of test [1] is Streptococcus pneumoniae ATCC 70071. Nature of the test: In vitro antibacterial activity (MIC). The note with it: ATCC70071, erythromycin sensitive strain ATCC 70071. As to the method: (§1) Compounds of this invention were tested for in vitro activity against three erythromycin sensitive strains of Streptococcus pneumoniae (ATCC 6301, ATCC 700671, and ATCC 49619), using methods known in the microbiological art.

Test [2] relates to Streptococcus pneumoniae ATCC 49619. The experiment in a line: In vitro antibacterial activity (MIC). The note with it: ATCC49619, erythromycin sensitive strain ATCC 49619. The procedure: as §1
In test [3] the test system is Streptococcus pneumoniae ATCC 6301. Nature of the test: In vitro antibacterial activity (MIC). The note with it: ATCC6301, erythromycin sensitive strain ATCC 6301. As to the method: as §1
The target of a further test is T1, motilin receptor (Homo sapiens, UniProt O43193).
T1 construct: expressed in transfected cells
The experiment in a line: Motilin agonist activity (activation of the motilin receptor). The procedure:
Compounds of this invention were tested for motilin agonist activity, following the procedure of Carreras et al., Anal. Biochem., 300, 146-151 (2002), the disclosure of which is incorporated herein by reference.

Data on 4 compounds can be found in US7407941B2, “N-desmethyl-N-substituted-11-deoxyerythromycin compounds” (Pfizer, Inc., priority 2003, dated 2008).

The structures appear in SMILES notation. Converted amounts (≈) assume the structure as drawn. A value given as a limit tells only on which side of the number the result lay.

T1 sequence (O43193 whole entry): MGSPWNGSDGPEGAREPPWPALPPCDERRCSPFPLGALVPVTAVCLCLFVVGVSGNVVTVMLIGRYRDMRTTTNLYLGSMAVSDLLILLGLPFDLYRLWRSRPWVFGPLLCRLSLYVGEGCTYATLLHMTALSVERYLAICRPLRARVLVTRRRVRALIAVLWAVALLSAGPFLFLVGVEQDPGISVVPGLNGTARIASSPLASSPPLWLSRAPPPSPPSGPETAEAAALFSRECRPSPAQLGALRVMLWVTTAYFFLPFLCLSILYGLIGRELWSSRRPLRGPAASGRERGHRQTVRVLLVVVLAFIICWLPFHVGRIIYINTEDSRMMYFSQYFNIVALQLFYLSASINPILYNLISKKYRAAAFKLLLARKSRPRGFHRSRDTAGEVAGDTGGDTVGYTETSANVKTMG

On to `CC[C@H]1OC(=O)[C@H](C)[C@@H](O[C@H]2C[C@@](C)(OC)[C@@H](O)[C@H](C)O2)[C@H](C)[C@@H](O[C@@H]2O[C@H](C)C[C@H](N(C)C)[C@H]2O)C(C)(O)C[C@@H](C)C(=O)[C@H](C)C[C@H]1C` (stereo partly drawn) [11-Deoxyerythromycin B, reference compound], for which the MIC in test [1] turned out to be 0.78 µg/mL (≈ 1.11 µM); in test [2], 0.098 µg/mL (≈ 0.14 µM); in test [3], 0.049 µg/mL (≈ 0.0698 µM). The compound further yielded an EC50 at motilin receptor of 1.2 µM.
In the case of `CC[C@H]1OC(=O)[C@H](C)[C@@H](O[C@H]2C[C@@](C)(OC)[C@@H](O)[C@H](C)O2)[C@H](C)[C@@H](O[C@@H]2O[C@H](C)C[C@H](N(C)C)[C@H]2O)[C@](C)(O)C[C@@H](C)C(=O)[C@H](C)[C@@H](O)[C@]1(C)O` [Erythromycin A, reference compound], the minimum inhibitory concentration (MIC) turned out to be 0.049 µg/mL (≈ 0.0668 µM) in test [1], 0.049 µg/mL (≈ 0.0668 µM) in test [2] and 0.025 µg/mL (≈ 0.0341 µM) in test [3].
With `CC[C@H]1OC(=O)[C@H](C)[C@@H](O[C@H]2C[C@@](C)(OC)[C@@H](O)[C@H](C)O2)[C@H](C)[C@@H](O[C@@H]2O[C@H](C)C[C@H](N(C)C(C)C)[C@H]2O)C(C)(O)C[C@@H](C)C(=O)[C@H](C)C[C@H]1C` (stereo partly drawn) [IVa, N-desmethyl-N-isopropyl-11-deoxyerythromycin B], the MIC amounted to 200 µg/mL (≈ 274 µM) in test [1], 6.25 µg/mL (≈ 8.56 µM) in test [2] and 12.5 µg/mL (≈ 17.1 µM) in test [3]. This compound also returned an EC50 on motilin receptor of 0.7 µM.
In the case of `CC[C@H]1OC(=O)[C@H](C)[C@@H](O[C@H]2C[C@@](C)(OC)[C@@H](O)[C@H](C)O2)[C@H](C)[C@@H](O[C@@H]2O[C@H](C)C[C@H](N(C)CC(C)C)[C@H]2O)C(C)(O)C[C@@H](C)C(=O)[C@H](C)C[C@H]1C` (stereo partly drawn) [IVb, N-desmethyl-N-isobutyl-11-deoxyerythromycin B], the MIC was more than 200 µg/mL in test [1], 200 µg/mL (≈ 269 µM) in test [2] and 200 µg/mL (≈ 269 µM) in test [3]. On motilin receptor, this compound registered an EC50 of 2.1 µM.

The MIC is the lowest concentration that inhibits growth of the organism. A high value points to weaker potency. The term EC50 denotes the concentration at which the effect is half-maximal.
